Where two headings read alike, the source gives them in different places.
Legend:
[1] = system: Salmonella Typhimurium TA1535; assay type: cell-based; details: positive control
Procedure: (§1) Salmonella Typhimurium TA97a, TA98, TA100, TA102, and TA1535 from MOLT OX, USA, were purchased from Shanghai Bioplus Biotech. Co., Ltd. The test was carried out using Salmonella typhimurium strains that were identified as meeting the requirements.
(§2) Rat liver S9 from Shanghai Bioplus Biotech. Co., Ltd.
(§3) The experiments were performed using the plate incorporation method.
(§4) Dose selection: The experiments were performed using 5 mg, 2.5 mg, 1.25 mg, 0.625 mg, 0.3125 mg, and 0.15625 mg per dish.
(§5) Test substance preparation: nitrosamine impurity compound P08 was prepared to a solution of 50 mg/ml with dimethyl-sulfoxide, and diluted with dimethyl-sulfoxide to give the solutions of 25 mg/ml, 12.5 mg/ml, 6.25 mg/ml, 3.125 mg/ml, and 1.5625 mg/ml successively.
(§6) 0.1 ml of frozen bacterial solutions TA97a, TA98, TA100, TA102 and TA1535 were inoculated into the 10 ml nutrient broth mediums respectively, and cultured at 37° C. (100/min) for 10 h with shaking (100 times/min). 2.0 ml of top layer medium containing 0.5 mmol/L histidine −0.5 mmol/L biotin was dispensed into test tubes, sterilized by 0.103 MPa for 20 min, and kept in a water bath at 50° C. Then, 0.1 ml of the test substance solution, 0.5 ml of the S9 mixture (when metabolic activation was required) and 0.1 ml of the bacterial solution were added into each tube successively, mixed sufficiently, and poured into the bottom layer agar plates quickly. Then, the plates were turned to distribute even. After being placed horizontally for condensation and solidification, the plates were inverted and incubated in an incubator at 37° C. for 48 h, and the number of reverse mutation colonies per dish was counted. Three parallel plates of each dose were made, containing the spontaneous reverse mutation group, the solvent control group and the positive control group.
(§7) The data were expressed as means±standards deviation (x±s), and SPSS 19.0 was used for calculation of data analysis.
(§8) If the test substance tested by the above test strain is negative both with and without S9, then the test substance is determined to be mutagenic negative.

[2] = system: Salmonella Typhimurium TA102; experiment: Ames test, plate incorporation method, TA102; assay type: cell-based; details: positive control
Procedure: as §1, §2, §3, §4, §5, §6, §7, §8

[3] = system: Salmonella Typhimurium TA97a; experiment: Ames test, plate incorporation method, TA97a; assay type: cell-based; details: positive control, −S9, 50 μg/dish
Procedure: (§9) Salmonella Typhimurium TA97a, TA98, TA100, TA102, and TA1535 from MOLT OX, USA, were purchased from Shanghai Bioplus Biotech.
as §2, §3, §4, §6, §7, §8

[4] = system: Salmonella Typhimurium TA98; experiment: Ames test, plate incorporation method, TA98; assay type: cell-based; details: positive control, TA98, −S9, 50 μg/dish
Procedure: as §9, §2, §3, §4, §6, §7, §8

[5] = Content of nitrosamine impurity P08 in varenicline tartrate tablets, initial and at high temperature (HPLC Q-Exactive-MS/MS); assay type: physicochemical
Procedure: After ultrasound for 5 min, the pH of the dispersion was measured. The content of the nitrosamine impurity P08 in the varenicline tartrate tablets were measured by HPLC Q-Exactive-MS/MS (Vanquish HPLC Q-Exactive-MS/MS).
Wherein, • “API” (Active Pharmaceutical Ingredient) refers to the API of varenicline tartrate. • “Initial” refers to the immediate measurement after the preparation of the varenicline tartrate tablet. • “Measurement at high-temperature” refers to the measurement after keeping at 60° C. of the prepared varenicline tartrate tablet for a period of time (see “Chinese Pharmacopoeia”). • Symbol * refers to the liquid sample after adjusting the pH value, and the liquid sample is tested. • Symbol # refers to the liquid sample after adjusting the pH value which is subjected to a high temperature test, and then the liquid sample is tested.
Methodologically validated HPLC Q-Exactive-MS/MS (Vanquish HPLC Q-Exactive-MS/MS) was used for the qualitative and/or quantitative determination of nitrosamine impurity P08 in varenicline tartrate tablets. The measurement results are shown in Example 4.
Sample solution: 10 varenicline tartrate tablets were placed in a 10 ml volumetric flask, added with 3 mL of purified water and 3 mL of acetonitrile, sonicated for 30s, then diluted with acetonitrile to volume and mixed evenly.
C (ppm)=the concentration (ng/ml) of P08 in the sample solution/the concentration (mg/ml) of varenicline tartrate in the sample solution.

[6] = system: Salmonella Typhimurium TA100; experiment: Ames test, plate incorporation method, TA100; assay type: cell-based; details: positive control, TA100, −S9, 1 μl/dish
Procedure: as §9, §2, §3, §4, §6, §7, §8

## O=P1(N(CCCl)CCCl)NCCCO1 (stereo not shown) [Cyclophosphamide, cyclophosphamide, reference compound]
[1]; TA1535, +S9, 200 μg/dish
  number of reverse mutation colonies per dish (x ± s): 171 ± 11

## O=C1c2cccc(O)c2C(=O)c2c(O)cccc21 [1,8-dihydroxyanthraquinone, reference compound]
[2]; TA102, +S9, 50 μg/dish
  number of reverse mutation colonies per dish (x ± s): 921 ± 32

## CN(C)c1ccc(N=NS(=O)(=O)[O-])cc1.[Na+] [Dexon, reference compound]
[3]
  number of reverse mutation colonies per dish (x ± s): 1294 ± 64
[4]
  number of reverse mutation colonies per dish (x ± s): 691 ± 43

## varenicline tartrate [API]
[5]; API of varenicline tartrate used for blue coating tablets
  P08 in API: 0.511 ppm
[5]; API of varenicline tartrate used for core tablets
  P08 in API: 0.511 ppm
[5]; API of varenicline tartrate used for white coating tablets
  P08 in API: 0.511 ppm

## COS(C)(=O)=O [Methyl methanesulfonate, methyl methanesulfonate, reference compound]
[2]; TA102, −S9, 1 μl/dish
  number of reverse mutation colonies per dish (x ± s): 2418 ± 257
[6]
  number of reverse mutation colonies per dish (x ± s): 1596 ± 71

## [N-]=[N+]=[N-] [Sodium azide, sodium azide, reference compound]
[1]; TA1535, −S9, 1.5 μg/dish
  number of reverse mutation colonies per dish (x ± s): 570 ± 46

From US20240374609A1, “NITROSAMINE IMPURITY, VARENICLINE PHARMACEUTICAL COMPOSITION CAPABLE OF REDUCING GENERATION OF NITROSAMINE IMPURITIES AND PREPARATION AND USE THEREOF” (VIWIT PHARMACEUTICALCO., LTD., priority 2021, published 2024)
